# Assay results: patent US9642831B2, “Substituted chromanes and method of use” (AbbVie S.á.r.l., priority 2014, dated 2017)
# Molecular target: F508delCFTR (Homo sapiens, UniProt P13569, DEL508-508)
# Experiment: Cell Surface Expression-Horse Radish Peroxidase (CSE-HRP) assay
# Format: cell-based
# Parameters: expressed in transfected cells; host or cells: CFBE41o- human lung derived epithelial cell line, doxycycline-inducible
# Conditions: CFBE4lo-F508delCFTR-HRP cells; for EC50: 18-24 hours at 33° C., 8-point curve, highest concentration 20 μM, luminescence readout; for Emax: maximum % activity at any tested concentration, normalized to on-plate positive control (3 μM Example 1)
# Summary of the method: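 Following 18-24 h compound exposure at 33° C. Expression was doxycycline-induced beforehand. % activity versus DMSO and a 3 μM corrector control gave maximum activity and EC50 from a variable-Hill sigmoidal fit.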
# Sequence of F508delCFTR (P13569 with tags, fused parts or gaps DEL508-508): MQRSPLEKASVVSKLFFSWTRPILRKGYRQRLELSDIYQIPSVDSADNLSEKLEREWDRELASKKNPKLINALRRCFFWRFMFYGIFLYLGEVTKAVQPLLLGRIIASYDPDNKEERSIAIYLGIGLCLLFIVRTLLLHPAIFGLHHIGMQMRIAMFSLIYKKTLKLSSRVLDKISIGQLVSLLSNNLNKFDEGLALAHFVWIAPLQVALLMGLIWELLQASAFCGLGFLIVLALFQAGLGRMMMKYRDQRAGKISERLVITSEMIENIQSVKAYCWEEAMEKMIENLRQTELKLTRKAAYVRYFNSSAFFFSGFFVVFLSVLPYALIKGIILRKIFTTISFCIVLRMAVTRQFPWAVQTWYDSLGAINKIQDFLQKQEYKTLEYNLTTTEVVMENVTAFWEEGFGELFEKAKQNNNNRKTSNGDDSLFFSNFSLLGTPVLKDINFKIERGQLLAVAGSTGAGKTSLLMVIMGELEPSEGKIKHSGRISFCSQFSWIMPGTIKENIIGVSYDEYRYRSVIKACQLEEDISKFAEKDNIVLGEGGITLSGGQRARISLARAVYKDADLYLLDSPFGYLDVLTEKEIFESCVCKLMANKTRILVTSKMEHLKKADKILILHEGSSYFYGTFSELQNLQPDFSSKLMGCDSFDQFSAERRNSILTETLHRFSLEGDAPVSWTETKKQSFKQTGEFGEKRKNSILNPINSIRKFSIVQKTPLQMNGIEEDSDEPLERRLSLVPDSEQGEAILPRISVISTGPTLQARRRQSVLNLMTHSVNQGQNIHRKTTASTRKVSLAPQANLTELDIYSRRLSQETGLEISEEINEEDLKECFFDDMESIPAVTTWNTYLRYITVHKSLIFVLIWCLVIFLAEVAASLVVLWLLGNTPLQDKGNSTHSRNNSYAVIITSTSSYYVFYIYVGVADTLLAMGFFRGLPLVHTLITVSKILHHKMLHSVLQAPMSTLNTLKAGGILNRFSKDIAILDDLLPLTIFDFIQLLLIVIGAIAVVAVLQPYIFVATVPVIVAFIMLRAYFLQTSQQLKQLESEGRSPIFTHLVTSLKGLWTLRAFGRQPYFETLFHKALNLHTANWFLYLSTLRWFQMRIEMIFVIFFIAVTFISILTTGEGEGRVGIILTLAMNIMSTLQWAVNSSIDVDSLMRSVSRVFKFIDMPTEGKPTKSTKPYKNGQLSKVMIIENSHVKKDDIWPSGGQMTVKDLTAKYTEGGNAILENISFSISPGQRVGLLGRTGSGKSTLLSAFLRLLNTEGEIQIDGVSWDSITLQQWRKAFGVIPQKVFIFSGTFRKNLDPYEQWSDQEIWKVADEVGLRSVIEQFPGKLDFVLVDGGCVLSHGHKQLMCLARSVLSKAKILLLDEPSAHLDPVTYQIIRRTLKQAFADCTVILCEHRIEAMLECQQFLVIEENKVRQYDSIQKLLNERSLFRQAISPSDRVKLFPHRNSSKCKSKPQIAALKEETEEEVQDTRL
smiles,measurement,value
"CCOC(=O)c1cccc([C@H]2C[C@@H](NC(=O)C3(c4ccc5c(c4)OC(F)(F)O5)CC3)c3ccncc3O2)c1 (stereo in doubt) [Example 25, ethyl rel-3-[(2R,4R)-4-({[1-(2,2-difluoro-1,3-benzodioxol-5-yl)cyclopropyl]carbonyl}amino)-3,4-dihydro-2H-pyrano[2,3-c]pyridin-2-yl]benzoate]",EC50,3910 nM
same,Emax,41%
"Cc1ccc2c(c1)O[C@@H](c1cccc(C(=O)NC3CCC(C)(C(=O)O)C3)c1)C[C@H]2NC(=O)C1(c2ccc3c(c2)OC(F)(F)O3)CC1 (stereo partly drawn) [Example 43, 3-({3-[(2R,4R)-4-({[1-(2,2-difluoro-1,3-benzodioxol-5-yl)cyclopropyl]carbonyl}amino)-7-methyl-3,4-dihydro-2H-chromen-2-yl]benzoyl}amino)-1-methylcyclopentanecarboxylic acid]",EC50,850 nM
same,Emax,78%
"COc1ccc2c(c1)OC(C1CN(C(=O)OC(C)(C)C)C1)CC2NC(=O)C1(c2ccc3c(c2)OC(F)(F)O3)CC1 (mixture of isomers) [Example 115, tert-butyl 3-[4-({[1-(2,2-difluoro-1,3-benzodioxol-5-yl)cyclopropyl]carbonyl}amino)-7-methoxy-3,4-dihydro-2H-chromen-2-yl]azetidine-1-carboxylate]",EC50,1940 nM
same,Emax,77%
